Source: patent US20110046187A1, “ASSESSING CONGESTIVE HEART RISK IN PATIENTS TREATED OR POTENTIALLY TO BE TREATED WITH A PEROXISOME-PROLIFERATOR-ACTIVATOR-RECEPTOR-GAMMA AGONIST OR A THIAZOLIDINEDIONE” (BG MEDICINE, INC., priority 2007, published 2011)
Where a name gives a salt, the structure may show the parent alone.

Experiments:
Type in all cases: in vivo
Galectin-3 mRNA = experiment: Transcriptional profiling (Affymetrix GeneChip) of Galectin-3 mRNA levels in mouse T2DM animal models (db/db and HFD); parameters: key to Direction & Significance, Galectin-3 mRNA: Significant difference between the Group A and Group B median values for Galectin-3 mRNA; NS: No Significant Difference based on statistical comparison of Galectin-3 mRNA values in Group A and Group B; conditions: for Direction & Significance, Galectin-3 mRNA / MFC (median fold change) Galectin-3 mRNA: drug/Disease (vehicle), Day 14; for MFC (median fold change) Galectin-3 mRNA: oral twice/day 14 days; for Effect on Gal-3 mRNA levels in adipose tissue, muscle or liver: mouse models of T2DM (text summary of Table 1)
BNP mRNA [1] = experiment: Transcriptional profiling (Affymetrix GeneChip) of BNP mRNA levels in mouse T2DM animal models (db/db and HFD); parameters: key to Direction & Significance, BNP mRNA: Significant difference between the Group A and Group B median values for BNP mRNA; NS: No Significant Difference based on statistical comparison of Galectin-3 mRNA values in Group A and Group B; conditions: drug/Disease (vehicle); for MFC (median fold change) BNP mRNA: oral twice/day 14 days; for Direction & Significance, BNP mRNA: Day 14
BNP mRNA [2] = experiment: BNP mRNA level in muscle, Clinical, Rosi/Placebo
[3] = Adipose, HFD-06 high fat diet mouse
[4] = Liver, HFD-06 high fat diet mouse
[5] = Muscle, HFD-06 high fat diet mouse
[6] = Adipose, HFD-07 high fat diet mouse
[7] = Liver, HFD-07 high fat diet mouse
[8] = Muscle, HFD-07 high fat diet mouse

SMILES | Direction & Significance, Galectin-3 mRNA (Galectin-3 mRNA; Adipose, DB-07 db/db mouse) | MFC (median fold change) Galectin-3 mRNA (Galectin-3 mRNA; Adipose, DB-07 db/db mouse) | Direction & Significance, Galectin-3 mRNA (Galectin-3 mRNA; [3]) | MFC (median fold change) Galectin-3 mRNA (Galectin-3 mRNA; [3]) | Direction & Significance, Galectin-3 mRNA (Galectin-3 mRNA; Liver, DB-07 db/db mouse) | MFC (median fold change) Galectin-3 mRNA (Galectin-3 mRNA; Liver, DB-07 db/db mouse) | Direction & Significance, Galectin-3 mRNA (Galectin-3 mRNA; [4]) | MFC (median fold change) Galectin-3 mRNA (Galectin-3 mRNA; [4]) | Direction & Significance, Galectin-3 mRNA (Galectin-3 mRNA; Muscle, DB-07 db/db mouse) | MFC (median fold change) Galectin-3 mRNA (Galectin-3 mRNA; Muscle, DB-07 db/db mouse) | Direction & Significance, Galectin-3 mRNA (Galectin-3 mRNA; [5]) | MFC (median fold change) Galectin-3 mRNA (Galectin-3 mRNA; [5]) | Effect on Gal-3 mRNA levels in adipose tissue, muscle or liver (Galectin-3 mRNA) | MFC (median fold change) BNP mRNA (BNP mRNA [1]; Adipose, DB-07 db/db mouse) | MFC (median fold change) BNP mRNA (BNP mRNA [1]; [3]) | Direction & Significance, BNP mRNA (BNP mRNA [1]; Adipose, DB-07 db/db mouse) | Direction & Significance, BNP mRNA (BNP mRNA [1]; [3]) | MFC (median fold change) BNP mRNA (BNP mRNA [1]; Liver, DB-07 db/db mouse) | MFC (median fold change) BNP mRNA (BNP mRNA [1]; [4]) | Direction & Significance, BNP mRNA (BNP mRNA [1]; Liver, DB-07 db/db mouse) | also measured
CN(C)C(=N)N=C(N)N [Metformin, metformin] | Increase NS | 1.10 | Increase NS | 1.08 | Increase NS | 1.06 | Increase NS | 1.08 | Decrease NS | 0.90 | Decrease NS | 0.82 | Neither glyburide nor metformin treatment of the mouse models of T2DM had any significant effect | 0.87 | 0.67 | Decrease NS | Decrease NS | 0.88 | 1.03 | Decrease NS | Direction & Significance, BNP mRNA (BNP mRNA [1]; [4]): Increase NS; MFC (median fold change) BNP mRNA (BNP mRNA [1]; Muscle, DB-07 db/db mouse): 1.09; MFC (median fold change) BNP mRNA (BNP mRNA [1]; [5]): 2.17; Direction & Significance, BNP mRNA (BNP mRNA [1]; Muscle, DB-07 db/db mouse): Increase NS; Direction & Significance, BNP mRNA (BNP mRNA [1]; [5]): Increase NS
COc1ccc(Cl)cc1C(=O)NCCc1ccc(S(=O)(=O)NC(=O)NC2CCCCC2)cc1 [Glyburide, glyburide] | Increase NS | 1.10 | Increase NS | 1.04 | Increase NS | 1.01 | Increase NS | 1.02 | Increase NS | 1.19 | Decrease NS | 0.87 | Neither glyburide nor metformin treatment of the mouse models of T2DM had any significant effect | 1.02 | 1.16 | Increase NS | Increase NS | 0.85 | 0.93 | Decrease NS | Direction & Significance, BNP mRNA (BNP mRNA [1]; [4]): Decrease NS; MFC (median fold change) BNP mRNA (BNP mRNA [1]; Muscle, DB-07 db/db mouse): 0.83; MFC (median fold change) BNP mRNA (BNP mRNA [1]; [5]): 3.17; Direction & Significance, BNP mRNA (BNP mRNA [1]; Muscle, DB-07 db/db mouse): Decrease NS; Direction & Significance, BNP mRNA (BNP mRNA [1]; [5]): Increase NS
CN(CCOc1ccc(CC2SC(=O)NC2=O)cc1)c1ccccn1 (centres unmarked) [Rosi, rosiglitazone maleate] | – | – | – | – | – | – | – | – | – | – | – | – | – | – | – | – | – | – | – | – | Direction & Significance, Galectin-3 mRNA (Galectin-3 mRNA; Adipose, DB-06 db/db mouse): Signif; MFC (median fold change) Galectin-3 mRNA (Galectin-3 mRNA; Adipose, DB-06 db/db mouse): 0.55; Direction & Significance, Galectin-3 mRNA (Galectin-3 mRNA; [6]): Signif; MFC (median fold change) Galectin-3 mRNA (Galectin-3 mRNA; [6]): 0.64; Direction & Significance, Galectin-3 mRNA (Galectin-3 mRNA; Liver, DB-06 db/db mouse): Signif; MFC (median fold change) Galectin-3 mRNA (Galectin-3 mRNA; Liver, DB-06 db/db mouse): 1.33; MFC (median fold change) Galectin-3 mRNA (Galectin-3 mRNA; [7]): 1.07; Direction & Significance, Galectin-3 mRNA (Galectin-3 mRNA; Muscle, DB-06 db/db mouse): Signif; MFC (median fold change) Galectin-3 mRNA (Galectin-3 mRNA; Muscle, DB-06 db/db mouse): 0.87; MFC (median fold change) Galectin-3 mRNA (Galectin-3 mRNA; [8]): 0.80; MFC (median fold change) BNP mRNA (BNP mRNA [1]; Adipose, DB-06 db/db mouse): 1.13; MFC (median fold change) BNP mRNA (BNP mRNA [1]; [6]): 1.29; Direction & Significance, BNP mRNA (BNP mRNA [1]; [6]): Signif; MFC (median fold change) BNP mRNA (BNP mRNA [1]; Liver, DB-06 db/db mouse): 1.68; MFC (median fold change) BNP mRNA (BNP mRNA [1]; [7]): 0.77; MFC (median fold change) BNP mRNA (BNP mRNA [1]; Muscle, DB-06 db/db mouse): 0.58; MFC (median fold change) BNP mRNA (BNP mRNA [1]; [8]): 1.40; MFC (median fold change) BNP mRNA (BNP mRNA [2]): 0.63
